Series [1] has as its system α7 nicotinic acetylcholine receptors. Details: method as in PMID 26455500. The following applies: 1.24 mg/kg; cited from earlier work.
A further series addresses α2 adrenoceptor. Conditions: anterior forebrain; autoradiography; pH 7.7, 22 °C, mg^2+ 0; blocking of NS phentolamine 10 μM; ref Boyajian et al.[41]; cited from earlier work.
Series [2] has as its system plasma proteins. The arrangement: method as in PMID 7836362. Conditions: cited from earlier work.
A further series concerns α1 and α2 adrenoceptors. The arrangement: method as in PMID 16153828. The following applies: cited from earlier work.
For series [3], the system named is plasma proteins. Nature of the series: Plasma ultrafiltration, ex vivo (plasma free fraction fP of [^11C]yohimbine). Type of series: in vitro ADME, rat. The following applies: 0.3 mg/kg yohimbine i.v., P < 0.05.
Description: In the ex vivo experiment, a separate group of six female Sprague Dawley rats were subjected to plasma ultrafiltration and treated identically to animals that underwent PET acquisition. […] We centrifuged the blood samples in heparinized tubes for 20 min at 4 °C to generate plasma and stored the samples at −50 °C.
To measure fP , we used the Centrifree centrifugal filter device (Millipore, Bedford, MA) with a molecular cutoff of 30 kDa for all samples. […] On the day of fP determination, the plasma samples were thawed in room temperature in 20 min. […] After 10 minutes incubation at room temperature, aliquots of 50 μl of this solution were used to measure the total activity (unfiltered plasma). […] The activity of filtered plasma was determined in triplicates. All samples were counted in a gamma device (Packard Cobra Gamma Counter, Model D5003). […] The correction factor, r, was determined as the ratio of the activity in the phosphate buffer before filtration, Abuffer(total), to the filtered buffer, Abuffer(ultrafiltrate),38 r=Abuffer(total)/Abuffer(ultrafiltrate), from which the plasma-free fraction, fP , was calculated as the ratio of the activity of the filtered plasma, Aplasma(ultrafiltrate), to the unfiltered plasma, Aplama(total), multiplied by the correction factor, r, for recovery,39 fP=rAplasma(ultrafiltrate)/Aplasma(total),
Series [4] deals with α2 adrenoceptors. Details: method as in Jakobsen and colleagues[14]. The following applies: porcine brain, ref Jakobsen and colleagues[14], cited from earlier work.
On the set-up of series [5]: method as in Jakobsen et al.[14]. Conditions: pigs, ref Jakobsen et al.[14], cited from earlier work.
Series [6] concerns [^11C]mirtazepin binding in porcine brain. The arrangement: method as in Smith et al.[34]. Conditions: ref Smith et al.[34], cited from earlier work.
The conditions of series [7]: rats; cited from earlier work.
In a further series the test system is α2 adrenoceptor subtypes. The arrangement: method as in PMID 7908054. The following applies: cited from earlier work.
Series [8] relates to plasma proteins. Conditions: in the circulation; cited from earlier work.
For series [9], the system named is α2 adrenoceptors. Nature of the series: PET of [^11C]yohimbine binding in rat brain at baseline and at challenge with unlabeled yohimbine. The following applies: for Binding potentials, BPND, percent-wise change (%) / Volumes of Distribution, VT, percent-wise change (%): COLD vs BASE, individual rats 1-5.
Series [10] has as its system translocator protein (TSPO). The arrangement: method as in Hilmer et al.[39]. The following applies: 0.1 ng/kg i.v.; ref Hilmer et al.[39]; cited from earlier work.
[11] abbreviates: CEREB cerebellum, unlabeled yohimbine 0.3 mg/kg i.v.
[12] abbreviates: CP caudate putamen, unlabeled yohimbine 0.3 mg/kg i.v.
The mark [13] stands for this setting: HYP hypothalamus, unlabeled yohimbine 0.3 mg/kg i.v.
[14] abbreviates: MC motor cortex, unlabeled yohimbine 0.3 mg/kg i.v.
The mark [15] stands for this setting: OLF olfactory bulb, unlabeled yohimbine 0.3 mg/kg i.v.
[16] abbreviates: PFC prefrontal cortex, unlabeled yohimbine 0.3 mg/kg i.v.
The mark [17] stands for this setting: SSC somatosensory cortex, unlabeled yohimbine 0.3 mg/kg i.v.
[18] abbreviates: THAL thalamus, unlabeled yohimbine 0.3 mg/kg i.v.
[19] abbreviates: unlabeled yohimbine 0.3 mg/kg vs baseline.

Entries after “also recorded” stand apart in the source; their conditions may differ. Read-outs that look alike come from different tables or passages of the source.

Turning to `O=S1(=O)c2cc(N3CCN4CCC3CC4)ccc2-c2cccc(F)c21` [ASEM], the “increase of fP of [^18F] DBT-10” value in series [1] was “two-fold increase”.

As to `COC(=O)[C@H]1[C@H]2C[C@H]3c4[nH]c5ccccc5c4CCN3C[C@H]2CC[C@@H]1O` [[^3H] -rauwolscine, [^3H]rauwolscine], at α2 adrenoceptor, the equilibrium dissociation constant (Kd) was 0.79 nM.

With `C=CC1=C(C)/C(=C/c2[nH]c(Cc3[nH]c(/C=C4\NC(=O)C(C)=C4C=C)c(C)c3CCC(=O)O)c(CCC(=O)O)c2C)NC1=O` [bilirubin], the “rate of relaxation from plasma proteins” value with plasma proteins [2] is 0.6 s⁻¹.

For `Cc1ccc(N(CC2=NCCN2)c2cccc(O)c2)cc1` [phentolamine], in the series on α1 and α2 adrenoceptors, the “selectivity between α1 and α2 adrenoceptors” value is “higher selectivity to α1 adrenoceptor”.

In the case of `COC(=O)[C@@H]1[C@H]2C[C@H]3c4[nH]c5ccccc5c4CCN3C[C@@H]2CC[C@@H]1O` [yohimbine], the “increase of plasma free fraction fP of [^11C]yohimbine compared to baseline” value in the series on plasma proteins [3] stood at 30%. Further, the entries for the “reduction of VT of [^11C]yohimbine” value in the series with α2 adrenoceptors [4] (low dose 0.07 mg/kg) and with α2 adrenoceptors [4] (pre-treatment 1.7 mg/kg) were “approximately 30%” and “failed to decrease VT further”, respectively. Moreover, the “global lowering of CBF” value in series [5] (higher dose 1.6 mg/kg) was 30%. The “effect on CBF” value in [5] (low dose 0.07 mg/kg) is listed as “unaffected”. For the same compound, the “reduction of [^11C]mirtazepin binding” value in [6] (0.3 mg/kg) is listed as 23%; in series [6] (3.0 mg/kg), 43%. In addition, the “effect on blood pressure and heart rate” value in series [7] is “raise blood pressure and heart rate”. Moreover, the “affinity to α2 adrenoceptor subtypes” value with α2 adrenoceptor subtypes is “does not distinguish between the subtypes”. In the series with plasma proteins [8], the “fraction bound to plasma proteins” value was “More than 80%”. In addition, the “Binding potentials, BPND, percent-wise change (%)” value is on record as “(−54) %; also recorded: (−63) %; also recorded: (−82) %; also recorded: (−56) %; also recorded: (−51) %” in the series on α2 adrenoceptors [9] (setting [11]); “(−64) %; also recorded: (−59) %; also recorded: (−55) %; also recorded: (−47) %” in the series with α2 adrenoceptors [9] (setting [12]); “(−59) %; also recorded: (−58) %; also recorded: (−50) %; also recorded: (−54) %; also recorded: (−46) %” in the series on α2 adrenoceptors [9] (HIP hippocampus, unlabeled yohimbine 0.3 mg/kg i.v.); “(−58) %; also recorded: (−61) %; also recorded: (−65) %; also recorded: (−53) %; also recorded: (−49) %” with α2 adrenoceptors [9] (setting [13]); “(−63) %; also recorded: (−65) %; also recorded: (−50) %; also recorded: (−61) %; also recorded: (−42) %” in the series with α2 adrenoceptors [9] (setting [14]); “(−71) %; also recorded: (−60) %; also recorded: (−78) %; also recorded: (−53) %; also recorded: (−58) %” in the series on α2 adrenoceptors [9] (setting [15]). The “Binding potentials, BPND, percent-wise change (%)” value is on record as “(−63) %; also recorded: (−60) %; also recorded: (−39) %; also recorded: (−61) %; also recorded: (−44) %” in the series with α2 adrenoceptors [9] (setting [16]), “(−63) %; also recorded: (−62) %; also recorded: (−45) %; also recorded: (−59) %; also recorded: (−41) %” with α2 adrenoceptors [9] (setting [17]) and “(−58) %; also recorded: (−57) %; also recorded: (−52) %; also recorded: (−44) %” in the series on α2 adrenoceptors [9] (setting [18]). Also, the “Volumes of Distribution, VT, percent-wise change (%)” value in the series with α2 adrenoceptors [9] (setting [11]) was “(19) %; also recorded: (5) %; also recorded: (0) %; also recorded: (16) %; also recorded: (27) %”; in the series on α2 adrenoceptors [9] (setting [12]) it was “(−6) %; also recorded: (5) %; also recorded: (25) %; also recorded: (3) %; also recorded: (34) %”; in the series on α2 adrenoceptors [9] (HIPP hippocampus, unlabeled yohimbine 0.3 mg/kg i.v.), “(4) %; also recorded: (9) %; also recorded: (36) %; also recorded: (14) %; also recorded: (35) %”; in the series on α2 adrenoceptors [9] (setting [13]), “(7) %; also recorded: (5) %; also recorded: (13) %; also recorded: (18) %; also recorded: (33) %”; in the series on α2 adrenoceptors [9] (setting [14]) it was “(1) %; also recorded: (−6) %; also recorded: (39) %; also recorded: (−1) %; also recorded: (44) %”; in the series on α2 adrenoceptors [9] (setting [15]) it was “(−15) %; also recorded: (10) %; also recorded: (−6) %; also recorded: (22) %; also recorded: (23) %”. The “Volumes of Distribution, VT, percent-wise change (%)” value is reported as “(−1) %; also recorded: (4) %; also recorded: (53) %; also recorded: (0) %; also recorded: (40) %” in the series with α2 adrenoceptors [9] (setting [16]), “(−2) %; also recorded: (0) %; also recorded: (47) %; also recorded: (3) %; also recorded: (45) %” in the series with α2 adrenoceptors [9] (setting [17]) and “(7) %; also recorded: (22) %; also recorded: (15) %; also recorded: (37) %” in the series with α2 adrenoceptors [9] (setting [18]). Besides, the “degree of saturation, s (available receptors blocked)” value in the series on α2 adrenoceptors [9] (average, 0.3 mg/kg yohimbine challenge, Extended Inhibition Plot) is on record as 56%. In the series on α2 adrenoceptors [9] (on average, unlabeled yohimbine 0.3 mg/kg i.v.), the “decline of BPND of [^11C]yohimbine in the challenge condition compared to baseline” value is recorded as 50–60%. Besides, the “effect of challenge on K1 of [^11C]yohimbine” value in the series on α2 adrenoceptors [9] (setting [19]) was “markedly elevated”. Further, the “effect of challenge on k2′ of [^11C]yohimbine” value in the series with α2 adrenoceptors [9] (setting [19]) is on record as “higher”.

With lipopolysaccharide [LPS], the “increase of [^11C] PBR28 VT” value in series [10] is listed as 39%.

(Values after article PMC5700124 (Scientific Reports, 2017).)
